Data on two molecules can be found in publication PMC3495668, “Serotonin-Induced Hypersensitivity via Inhibition of Catechol O-Methyltransferase Activity” (Molecular Pain, 2012).

For data set [1], the target named is T1, catechol O-methyltransferase (COMT) (Sus scrofa, UniProt F1RHN3).
T1 construct: Purified COMT protein (derived from porcine liver), biotinylated at surface lysines
T1 sequence (F1RHN3 1-270): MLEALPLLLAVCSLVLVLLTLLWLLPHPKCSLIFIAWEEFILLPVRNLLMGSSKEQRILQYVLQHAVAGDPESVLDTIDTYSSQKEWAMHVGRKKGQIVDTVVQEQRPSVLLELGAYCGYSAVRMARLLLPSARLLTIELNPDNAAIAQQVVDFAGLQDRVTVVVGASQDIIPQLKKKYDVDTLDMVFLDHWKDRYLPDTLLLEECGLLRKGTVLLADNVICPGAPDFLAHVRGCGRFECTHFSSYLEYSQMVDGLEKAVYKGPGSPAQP
The data set is described as follows: SPR (Biacore […]); also radiolabelled SAM activity assay, Ki,app […]. It counts as binding. (Surface plasmon resonance follows binding to a sensor surface in real time, without labels.)

Substrate in data set [2]: Oc1ccccc1O
The data set is described as follows: radiolabelled SAM methylation assay, Michaelis-Menten KM. It counts as biochemical, Sus scrofa. The note with it: S-adenosyl-L-methionine; Mg2+ ([…] MgCl2) catechol substrate site.

By Km is commonly meant the concentration of substrate that gives half-maximal velocity.

With `NCCc1c[nH]c2ccc(O)cc12` [serotonin], the Kd in data set [1] was around 87 µM.

B1: catechol O-methyltransferase (COMT) (Sus scrofa) (protein)
chain: T1 sequence (F1RHN3 1-270)
notes: Purified COMT
On to B1, for which the Michaelis constant (Km) in data set [2] was determined as 16 µM.
